Experiments:
[1] = tested on: ARH-77 cells; assay: Cell viability assay (CellTiter-Glo), ARH-77; format: cell-based; details: Homo sapiens, ARH-77, 24 hours incubation, 1% FBS, read-out: Average pIC50 by molecule ARH-77 (converted)
Description: (§1) The effect of various compounds of the invention on the viability of OPM-2, MV-4-11 and ARH-77 cell lines was investigated, using the CTG protocol described below.
(§2) OPM-2 and MV-4-11 cell lines are derived from multiple myeloma and acute myeloid leukaemia, respectively. Both cell lines are described in the literature as MCL-1 dependent lines, as opposed to lymphoblast-like ARH-77 cell line, which is described as independent of MCL-1 (Tron A E et al. Nat Commun. 2018; 9: 5341; Caenepeel S et al. Cancer Discov. 2018 December; 8(12):1582-1597).
(§3) Cells (OPM-2, MV-4-11 or ARH-77) were seeded on […] in a growth medium with FBS reduced to 1%. Next, compound stocks were pre-diluted in DMSO and added directly to the cells growth medium (final DMSO concentration: 0.5%). Compound concentrations used in this assay: 1/3 dilutions starting at 30 uM (9 to 12 points).
(§4) After 24 hours of incubation, cell viability was evaluated using CellTiter-Glo Luminescent Cell Viability Assay (Promega, cat #G7572). Luminescence signal was measured using a CLARIOstar Plus Multi-Mode Microplate Reader (574-590 nm).
(§5) Results were normalized to DMSO control.

[2] = tested on: MV-4-11 cells; assay: Cell viability assay (CellTiter-Glo), MV-4-11; format: cell-based; details: Homo sapiens, MV4-11, 24 hours incubation, 1% FBS, read-out: Average pIC50 by molecule MV-4-11 (converted)
Description: as §1, §2, §3, §4, §5

[3] = biological target: [MCL-1]-[compound of formula (I)]-[CRBN/DDB1] complex (Homo sapiens, UniProt Q07820+Q96SW2); assay: AlphaLISA dose response ternary complex formation assay; format: binding; details: read-out: AlphaLISA dose response Average pEC50 by molecule (converted)
Chain of [MCL-1]-[compound of formula (I)]-[CRBN/DDB1] complex (Q07820 whole entry): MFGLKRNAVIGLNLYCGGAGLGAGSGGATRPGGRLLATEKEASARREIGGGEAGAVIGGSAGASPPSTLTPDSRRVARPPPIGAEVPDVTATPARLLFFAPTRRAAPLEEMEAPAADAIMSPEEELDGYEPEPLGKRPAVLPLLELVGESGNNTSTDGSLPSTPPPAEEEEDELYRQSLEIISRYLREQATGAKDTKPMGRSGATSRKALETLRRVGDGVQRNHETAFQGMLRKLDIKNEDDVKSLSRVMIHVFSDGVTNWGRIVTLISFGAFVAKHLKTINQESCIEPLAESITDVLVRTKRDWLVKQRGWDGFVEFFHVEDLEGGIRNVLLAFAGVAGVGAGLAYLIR
Chain of [MCL-1]-[compound of formula (I)]-[CRBN/DDB1] complex (Q96SW2 whole entry): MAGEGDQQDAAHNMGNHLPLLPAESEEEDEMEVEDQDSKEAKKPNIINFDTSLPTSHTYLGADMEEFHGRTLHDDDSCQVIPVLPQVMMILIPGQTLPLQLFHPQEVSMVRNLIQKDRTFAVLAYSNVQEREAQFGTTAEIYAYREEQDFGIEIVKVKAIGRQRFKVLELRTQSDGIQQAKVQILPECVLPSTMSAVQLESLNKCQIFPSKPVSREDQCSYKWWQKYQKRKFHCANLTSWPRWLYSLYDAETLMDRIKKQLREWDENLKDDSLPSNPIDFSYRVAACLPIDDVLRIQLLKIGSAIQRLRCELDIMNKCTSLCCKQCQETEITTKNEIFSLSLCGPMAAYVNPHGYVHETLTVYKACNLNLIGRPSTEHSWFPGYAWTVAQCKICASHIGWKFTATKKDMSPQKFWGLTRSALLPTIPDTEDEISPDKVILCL
Chain of [MCL-1]-[compound of formula (I)]-[CRBN/DDB1] complex (Q16531 whole entry partner): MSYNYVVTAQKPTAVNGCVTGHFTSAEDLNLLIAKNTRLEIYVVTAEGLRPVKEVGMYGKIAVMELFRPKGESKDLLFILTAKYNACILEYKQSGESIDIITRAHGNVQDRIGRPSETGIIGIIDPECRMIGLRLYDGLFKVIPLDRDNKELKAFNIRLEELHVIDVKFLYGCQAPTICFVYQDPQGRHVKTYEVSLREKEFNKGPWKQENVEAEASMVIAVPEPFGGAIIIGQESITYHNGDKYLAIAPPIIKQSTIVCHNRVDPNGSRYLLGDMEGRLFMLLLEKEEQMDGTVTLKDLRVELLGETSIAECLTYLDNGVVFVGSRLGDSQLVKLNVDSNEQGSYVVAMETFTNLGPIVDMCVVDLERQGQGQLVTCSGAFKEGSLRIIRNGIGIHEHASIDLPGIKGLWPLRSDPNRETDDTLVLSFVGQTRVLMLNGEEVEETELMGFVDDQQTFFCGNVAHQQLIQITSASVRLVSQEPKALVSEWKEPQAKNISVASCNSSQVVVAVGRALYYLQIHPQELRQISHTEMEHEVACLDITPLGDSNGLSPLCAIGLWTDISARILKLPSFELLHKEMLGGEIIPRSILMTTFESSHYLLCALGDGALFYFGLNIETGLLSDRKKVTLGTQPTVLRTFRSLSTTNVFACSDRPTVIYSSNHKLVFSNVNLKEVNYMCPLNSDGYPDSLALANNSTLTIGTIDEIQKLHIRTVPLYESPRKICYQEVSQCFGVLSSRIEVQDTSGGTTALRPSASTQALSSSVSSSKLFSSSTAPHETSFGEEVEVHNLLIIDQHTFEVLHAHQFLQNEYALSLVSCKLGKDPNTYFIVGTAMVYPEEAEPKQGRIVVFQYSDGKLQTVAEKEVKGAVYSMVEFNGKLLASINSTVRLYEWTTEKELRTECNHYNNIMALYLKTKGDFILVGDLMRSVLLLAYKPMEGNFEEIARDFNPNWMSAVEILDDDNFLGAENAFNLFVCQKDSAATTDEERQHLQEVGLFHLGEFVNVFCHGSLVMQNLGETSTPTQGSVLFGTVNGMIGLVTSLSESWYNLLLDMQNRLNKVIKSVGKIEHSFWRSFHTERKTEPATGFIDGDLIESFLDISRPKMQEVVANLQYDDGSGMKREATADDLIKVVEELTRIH
Method: The effect of the bifunctional compounds of the invention on the formation of a ternary complex composed of [MCL-1]-[compound of formula (I)]-[CRBN/DDB1] was investigated with two methods: AlphaLISA dose response assay or HTRF ternary complex assay.
Two types of protein solution were prepared: • 40 nM biotinylated hMCL-1, 40 μg/ml AlphaScreen Streptavidin-coated Donor Beads in PBS buffer with 0.1% Tween-20 and 1 mM DTT, • 200 nM 6×His-CRBN/Strep-DDB1, 40 μg/ml AlphaLISA Anti-6×His Acceptor beads in PBS buffer with 0.1% Tween-20 and 1 mM DTT.
The prepared solutions were incubated at room temperature for 45 min and then the solution containing the donor beads was mixed with the solution containing the acceptor beads.
The tested compounds were dispensed onto a white 384-well AlphaPlate 384 SW. DMSO was backfilled to all wells, resulting in a final DMSO content of 2%. Wells containing only DMSO served as background. Next, 10 μl of solution with donor and acceptor beads was added to the wells.
The plate was sealed with transparent film and shaken using a VibroTurbulator for 60 see at room temperature, level 3. The plate was then spun down shortly (10 s, 1000 rcf, room temperature) and incubated at 25° C. for 30 min.
The read-out was performed with PerkinElmer Enspire Multimode Plate Reader (method for AlphaLISA 384-well low volume, Filterset: λexc=680 nm, λem=615 nm).
The results were analyzed as follows: • 1) an average of luminescence for background signal was calculated and used as a negative control; • 2) average of the maximum measured luminescence for 233 was calculated and used as an internal positive control; • 3) raw luminescence values were normalized against positive and negative controls; • 4) concentration points above the hook point were excluded; • 5) EC50 and pEC50 values were determined.

| SMILES | IC50 [1] [nM] | IC50 [2] [nM] | EC50 [3] [nM] |
| --- | --- | --- | --- |
| COc1cc(OCCCc2c(C(=O)O)n(CCN3CCN(C(=O)COc4cccc5c4C(=O)N(C4CCC(=O)NC4=O)C5=O)CC3)c3c(-c4c(C)nn(C)c4C)c(Cl)ccc23)c2ccccc2c1 (stereo not drawn) [Compound 218, 6-chloro-1-(2-(4-(2-((2-(2,6-dioxopiperidin-3-yl)-1,3-dioxoisoindolin-4-yl)oxy)acetyl)piperazin-1-yl)ethyl)-3-(3-((3-methoxynaphthalen-1-yl)oxy)propyl)-7-(1,3,5-trimethyl-1H-pyrazol-4-yl)-1H-indole-2-carboxylic acid] | > 10000 | ≤ 1000 | < 100 |
| Cc1nn(C)c(C)c1-c1c(Cl)ccc2c(CCCOc3cccc4cc(F)ccc34)c(C(=O)O)n(CCN3CCN(C(=O)[C@@H](C)Oc4cccc5c4C(=O)N([C@@H]4CCC(=O)NC4=O)C5=O)CC3)c12 (single isomer, unassigned) [Compound 316] | > 3160 | ≤ 100 | < 1000 |
| Cc1nn(C)c(C)c1-c1c(Cl)ccc2c(CCCOc3cccc4cc(F)ccc34)c(C(=O)O)n(CCN3CCC4CN(C(=O)CNc5cccc6c5C(=O)N(C5CCC(=O)NC5=O)C6=O)CC43)c12 (stereo not drawn) [Compound 300, 6-Chloro-1-(2-(5-((2-(2,6-dioxopiperidin-3-yl)-1,3-dioxoisoindolin-4-yl)glycyl)hexahydropyrrolo[3,4-b]pyrrol-1(2H)-yl)ethyl)-3-(3-((6-fluoronaphthalen-1-yl)oxy)propyl)-7-(1,3,5-trimethyl-1H-pyrazol-4-yl)-1H-indole-2-carboxylic acid] | > 3160 | ≤ 100 | < 10 |
| Cc1nn(C)c(C)c1-c1c(Cl)ccc2c(CCCOc3cccc4cc(F)ccc34)c(C(=O)O)n(CCN3CCC(CN4CCN(c5cc6c(cc5F)C(=O)N(C5CCC(=O)NC5=O)C6=O)CC4)CC3)c12 (stereo not drawn) [Compound 331, 6-Chloro-1-(2-(4-((4-(2-(2,6-dioxopiperidin-3-yl)-6-fluoro-1,3-dioxoisoindolin-5-yl)piperazin-1-yl)methyl)piperidin-1-yl)ethyl)-3-(3-((6-fluoronaphthalen-1-yl)oxy)propyl)-7-(1,3,5-trimethyl-1H-pyrazol-4-yl)-1H-indole-2-carboxylic acid] | > 10000 | ≤ 316 | < 100 |
| Cc1nn2c(c1-c1c(F)ccc3c(CCCOc4cccc5cc(F)ccc45)c(C(=O)O)n(CCN4CCN(C(=O)COc5cccc6c5CN(C5CCC(=O)NC5=O)C6=O)CC4)c13)OCC2 (stereo not drawn) [Compound 351, 1-{2-[4-(2-{[2-(2,6-dioxopiperidin-3-yl)-1-oxo-2,3-dihydro-1H-isoindol-4-yl]oxy}acetyl)piperazin-1-yl]ethyl}-6-fluoro-3-{3-[(6-fluoronaphthalen-1-yl)oxy]propyl}-7-{6-methyl-2H,3H-pyrazolo[3,2-b][1,3]oxazol-7-yl}-1H-indole-2-carboxylic acid] | > 31600 | ≤ 316 | < 10 |
| Cc1nn(C)c(C)c1-c1c(Cl)ccc2c(CCCOc3cccc4cc(F)ccc34)c(C(=O)O)n(CCN3CCC(CN4CCN(c5cccc6c5C(=O)N(C5CCC(=O)NC5=O)C6=O)CC4)CC3)c12 (stereo not drawn) [Compound 332, 6-Chloro-1-(2-(4-((4-(2-(2,6-dioxopiperidin-3-yl)-1,3-dioxoisoindolin-4-yl)piperazin-1-yl)methyl)piperidin-1-yl)ethyl)-3-(3-((6-fluoronaphthalen-1-yl)oxy)propyl)-7-(1,3,5-trimethyl-1H-pyrazol-4-yl)-1H-indole-2-carboxylic acid] | > 31600 | ≤ 1000 | < 100 |
| Cc1nn2c(c1-c1c(F)ccc3c(CCCOc4cccc5cc(F)ccc45)c(C(=O)O)n(CCN4CCN(C(=O)COc5cccc6c5CN(C5CCC(=O)NC5=O)C6=O)CC4)c13)COCC2 (stereo not drawn) [Compound 226, 1-{2-[4-(2-{[2-(2,6-dioxopiperidin-3-yl)-1-oxo-2,3-dihydro-1H-isoindol-4-yl]oxy}acetyl)piperazin-1-yl]ethyl}-6-fluoro-3-{3-[(6-fluoronaphthalen-1-yl)oxy]propyl}-7-{2-methyl-4H,6H,7H-pyrazolo[3,2-c][1,4]oxazin-3-yl}-1H-indole-2-carboxylic acid] | > 10000 | ≤ 100 | < 100 |

Reference: patent publication US20240294499A1, “TARGETED PROTEIN DEGRADATION USING BIFUNCTIONAL COMPOUNDS THAT BIND UBIQUITIN LIGASE AND TARGET MCL-1 PROTEIN” (Captor Therapeutics S.A., priority 2021, published 2024)
